Experimental data as given in BigSolDB 2.1.

c1ccc2c(c1)ccc1ccccc12
solubility (mole fraction)
Conditions	293 K	303 K	313 K	323 K
in 2,2,4-trimethylpentane	0.019	0.036	0.0874	0.138
in n-heptane	0.0154	0.0247	0.036	0.0519
in toluene	0.461	0.499	0.577	0.604
